# Assays:
# Assay in all cases: combination Emax (second highest fraction inhibited in the dose matrix, 72 h); higher = more inhibition; extreme values may be limits of the assay
# [1] = tested on: HCT-116 (Colorectal Carcinoma)
# Outline: (§1)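 Cell lines in DMEM/F12 or RPMI with 10% FBS were plated in 1536-well plates, held 24 hours at 37°C, 5% CO2, then given two-drug dose matrices for 72 hours (DMSO typically 0.2%). Viability was read by CellTiter-Glo 2.0 luminescence and scaled as inhibition from 0 (vehicle wells) to 1 (blank wells). Combination Emax is the second-highest inhibition in the matrix; Bliss excess is observed combination effect minus expected EA + EB − EA·EB, EA and EB being single-agent effects.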
# MSTO-211H (Mesothelioma) = tested on: MSTO-211H (Mesothelioma)
# Outline: as §1
# HuO9 (Osteosarcoma) = tested on: HuO9 (Osteosarcoma)
# Outline: as §1
# [2] = tested on: NOMO-1 (Acute Myeloid Leukemia)
# Outline: as §1
# MCF7 (Breast Carcinoma) = tested on: MCF7 (Breast Carcinoma)
# Outline: as §1
# [3] = tested on: SW948 (Colorectal Carcinoma)
# Outline: as §1
# [4] = tested on: NCI-H1688 (Small Cell Lung Carcinoma)
# Outline: as §1
# [5] = tested on: D-283MED (Other Solid Carcinomas)
# Outline: as §1
# Saos-2 (Osteosarcoma) = tested on: Saos-2 (Osteosarcoma)
# Outline: as §1
# [6] = tested on: SK-LMS-1 (Other Solid Carcinomas)
# Outline: as §1
# [7] = tested on: SLVL (B-Cell Non-Hodgkin's Lymphoma)
# Outline: as §1
# [8] = tested on: SW48 (Colorectal Carcinoma)
# Outline: as §1
# [9] = tested on: CAL-39 (Other Solid Carcinomas)
# Outline: as §1
# [10] = tested on: HCC-827 (Lung Adenocarcinoma)
# Outline: as §1
# [11] = tested on: EKVX (Non-Small Cell Lung Carcinoma)
# Outline: as §1
# H4 (Low Grade Glioma) = tested on: H4 (Low Grade Glioma)
# Outline: as §1
# SK-MEL-1 (Melanoma) = tested on: SK-MEL-1 (Melanoma)
# Outline: as §1
# [12] = tested on: EFM-192A (Breast Carcinoma)
# Outline: as §1
# [13] = tested on: SKN-3 (Head and Neck Carcinoma)
# Outline: as §1
# [14] = tested on: RCC10RGB (Kidney Carcinoma)
# Outline: as §1
SMILES,combination Emax [1],combination Emax (MSTO-211H (Mesothelioma)),combination Emax (HuO9 (Osteosarcoma)),combination Emax [2],combination Emax (MCF7 (Breast Carcinoma)),combination Emax [3],combination Emax [4],combination Emax [5],combination Emax (Saos-2 (Osteosarcoma)),combination Emax [6],combination Emax [7],combination Emax [8],combination Emax [9],combination Emax [10],combination Emax [11],combination Emax (H4 (Low Grade Glioma)),combination Emax (SK-MEL-1 (Melanoma)),combination Emax [12],combination Emax [13],combination Emax [14]
"CCc1c2c(nc3ccc(O)cc13)-c1cc3c(c(=O)n1C2)COC(=O)[C@]3(O)CC [SN-38] + O=C(c1cc(Cc2n[nH]c(=O)c3ccccc23)ccc1F)N1CCN(C(=O)C2CC2)CC1 [Olaparib] (first compound max 0.3 µM, 7x7, partner max 10 µM)",0.9,0.677,0.996,0.968,0.654,0.647,0.534,0.947,0.96,0.889,1,0.799,0.979,0.497,0.3,0.938,0.516,–,–,–
"CCN(CCO)CCCOc1ccc2c(Nc3cc(CC(=O)Nc4cccc(F)c4)[nH]n3)ncnc2c1 [AZD2811] + C=CCn1c(=O)c2cnc(Nc3ccc(N4CCN(C)CC4)cc3)nc2n1-c1cccc(C(C)(C)O)n1 [AZD1775] (first compound max 1 µM, partner max 1 µM)",0.547,0.618,0.686,0.932,0.303,–,0.568,1,0.704,0.436,0.889,0.964,0.415,0.392,0.17,0.782,0.353,0.239,0.148,0.518
"CCN(CCO)CCCOc1ccc2c(Nc3cc(CC(=O)Nc4cccc(F)c4)[nH]n3)ncnc2c1 [AZD2811] + O=C(c1cc(Cc2n[nH]c(=O)c3ccccc23)ccc1F)N1CCN(C(=O)C2CC2)CC1 [Olaparib] (first compound max 1 µM, 7x7, partner max 10 µM)",0.452,0.35,0.293,0.396,0.224,–,0.196,0.817,0.456,0.367,0.723,0.961,0.324,0.236,0.159,0.558,0.289,0.212,0.0796,0.211
"C=CCn1c(=O)c2cnc(Nc3ccc(N4CCN(C)CC4)cc3)nc2n1-c1cccc(C(C)(C)O)n1 [AZD1775] + O=C(c1cc(Cc2n[nH]c(=O)c3ccccc23)ccc1F)N1CCN(C(=O)C2CC2)CC1 [Olaparib] (first compound max 1 µM, partner max 10 µM)",0.635,0.696,0.792,0.917,0.332,–,0.6,1,0.613,0.563,0.915,0.409,0.402,0.368,0.256,0.853,0.42,0.293,0.171,0.52
"CCN(CCO)CCCOc1ccc2c(Nc3cc(CC(=O)Nc4cccc(F)c4)[nH]n3)ncnc2c1 [AZD2811] + C[C@@H]1COCCN1C2=NC(=NC(=C2)C3(CC3)[S@](=N)(=O)C)C4=C5C=CNC5=NC=C4 [AZD6738] (first compound max 1 µM, 7x7, partner max 10 µM)",0.562,0.727,0.815,0.922,0.58,–,0.271,1,0.588,0.551,0.784,0.975,0.467,0.493,0.261,0.808,0.331,0.233,0.222,0.384
"C=CCn1c(=O)c2cnc(Nc3ccc(N4CCN(C)CC4)cc3)nc2n1-c1cccc(C(C)(C)O)n1 [AZD1775] + C[C@@H]1COCCN1C2=NC(=NC(=C2)C3(CC3)[S@](=N)(=O)C)C4=C5C=CNC5=NC=C4 [AZD6738] (first compound max 1 µM, partner max 10 µM)",0.757,0.85,0.94,0.978,0.73,–,0.789,1,0.823,0.704,0.917,0.886,0.598,0.609,0.327,0.994,0.55,0.39,0.648,0.538
"CN(C)CCCOc1ccc(-c2ccc3ncc4c(c3c2)n(C2CCOCC2)c(=O)n4C)cn1 [AZD0156] + C=CCn1c(=O)c2cnc(Nc3ccc(N4CCN(C)CC4)cc3)nc2n1-c1cccc(C(C)(C)O)n1 [AZD1775] (first compound max 1 µM, partner max 1 µM)",0.494,0.667,0.709,0.96,0.417,–,0.646,0.996,0.494,0.439,0.904,0.372,0.376,0.456,0.179,0.791,0.442,0.353,0.139,0.464
"CN(C)CCCOc1ccc(-c2ccc3ncc4c(c3c2)n(C2CCOCC2)c(=O)n4C)cn1 [AZD0156] + CCN(CCO)CCCOc1ccc2c(Nc3cc(CC(=O)Nc4cccc(F)c4)[nH]n3)ncnc2c1 [AZD2811] (first compound max 1 µM, 7x7, partner max 1 µM)",0.287,0.27,0.224,0.501,0.237,–,0.143,0.769,0.369,0.278,0.605,0.957,0.33,0.143,0.0666,0.513,0.275,0.269,0.0518,0.143
"Cc1cc2ncnn2cc1Nc1ncc2c(n1)n(C1CCOCC1)c(=O)n2C [AZD7648] + O=C(c1cc(Cc2n[nH]c(=O)c3ccccc23)ccc1F)N1CCN(C(=O)C2CC2)CC1 [Olaparib] (first compound max 10 µM, 7x7, partner max 10 µM)",0.234,0.218,0.441,0.365,0.29,–,0.135,0.639,0.14,0.281,0.455,0.246,0.174,0.199,0.147,0.585,0.24,0.278,0.0538,0.18
"CN(C)CCCOc1ccc(-c2ccc3ncc4c(c3c2)n(C2CCOCC2)c(=O)n4C)cn1 [AZD0156] + C[C@@H]1COCCN1C2=NC(=NC(=C2)C3(CC3)[S@](=N)(=O)C)C4=C5C=CNC5=NC=C4 [AZD6738] (first compound max 1 µM, 7x7, partner max 10 µM)",0.665,0.856,0.838,0.94,0.837,–,0.382,1,0.394,0.525,0.84,0.779,0.5,0.495,0.234,0.826,0.442,0.245,0.414,0.403
"C[C@@H](c1ccc2nccn2c1)n1nnc2ncc(-c3cnn(C)c3)nc21 [Savolitinib] + Cc1c2c(nn1C)CSCc1cc(n(C)n1)CSc1cc(c3ccccc3c1)OCCCc1c(C(=O)O)n(C)c3c-2c(Cl)ccc13 [AZD5991] (first compound max 1 µM, 7x7, partner max 1 µM)",0.162,0.123,0.739,0.864,0.49,0.215,0.314,0.725,0.229,0.223,0.374,0.24,0.264,0.283,–,0.298,0.0746,0.587,0.216,0.289
"NC1(C(=O)N[C@@H](CCO)c2ccc(Cl)cc2)CCN(c2ncnc3[nH]ccc23)CC1 [Capivasertib] + CC(=O)c1c(C)c2cnc(Nc3ccc(N4CCNCC4)cn3)nc2n(C2CCCC2)c1=O [Palbociclib] (first compound max 10 µM, 7x7, partner max 10 µM)",0.782,0.261,0.541,0.517,0.676,0.57,0.224,0.634,0.407,0.433,0.56,0.63,0.672,0.344,–,0.751,0.141,0.432,0.474,0.54
"Cc1nc(Nc2ncc(C(=O)Nc3c(C)cccc3Cl)s2)cc(N2CCN(CCO)CC2)n1 [Dasatinib] + CC(=O)Nc1cccc(-n2c(=O)n(C3CC3)c(=O)c3c(Nc4ccc(I)cc4F)n(C)c(=O)c(C)c32)c1 [Trametinib] (first compound max 2 µM, 7x7, partner max 1 µM)",0.979,0.747,0.541,0.861,0.112,0.764,0.249,0.419,0.335,0.645,0.663,0.959,0.944,0.947,–,0.393,0.854,0.122,0.575,0.667

# From the supplement of paper PMC11061612
